From patent publication US12599672B2, “KRAS proteolysis targeting chimeras” (PAQ Therapeutics Inc., priority 2023, dated 2026)

Key:
Assay type in all cases: cell-based
[1] = biological target: T1, KRAS (Homo sapiens, UniProt P01116); test: KRASamp MSD assay; details: KE39 (KRAS amplified) cells, treated with test compounds for 24 hr, MSD readout of KRAS degradation
T1 construct: endogenous in cells; host or cells: KE39 (KRAS amplified) cells
Outline: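 Degradation DC50 derived by curve fitting, with KRAS levels quantified by MSD electrochemiluminescence (capture/detection antibodies, recombinant WT KRAS standard). Lysates prepared from KE39 cells (KRAS amplified) exposed to test compounds for 24 hr.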

[2] = biological target: T2, KRAS G12D (Homo sapiens, UniProt P01116, G12D); test: KRAS G12D HiBit assay; details: AsPc-1-KRAS (G12D)-HiBit-KI cell, compound treatment for 24 hours; for DC50: absolute DC50
T2 construct: AsPc-1-KRAS (G12D)-HiBit-KI cell (Pharmaron); host or cells: AsPc-1-KRAS (G12D)-HiBit-KI cells (HiBiT knock-in at the endogenous KRAS locus)
T2 sequence (P01116 1-188 isoform P01116-2 G12D): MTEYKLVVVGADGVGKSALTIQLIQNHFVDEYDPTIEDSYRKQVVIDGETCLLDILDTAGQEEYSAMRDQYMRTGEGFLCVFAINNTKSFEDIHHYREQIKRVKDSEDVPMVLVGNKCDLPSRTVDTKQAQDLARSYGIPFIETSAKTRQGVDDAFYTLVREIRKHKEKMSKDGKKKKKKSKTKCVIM
Outline: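 HiBiT luminescence, detected by adding lytic buffer, substrate and LgBiT protein, served as the KRAS G12D read-out. Compounds, serially diluted 3-fold over 10 points from 0.3 mM DMSO stock, were on cells for 24 h; percent inhibition normalized to cells given 0.1% DMSO only.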

[3] = biological target: T3, KRAS G12V (Homo sapiens, UniProt P01116, G12V); test: KRAS G12V HiBit assay; details: SW620-KRAS (G12V)-HiBit-KI cells, compound treatment for 24 hours, class symbols
T3 construct: SW620-KRAS (G12V)-HiBit-KI cell (Pharmaron); host or cells: SW620-KRAS (G12V)-HiBit-KI cells (HiBiT knock-in at the endogenous KRAS locus)
T3 sequence (P01116 1-188 isoform P01116-2 G12V): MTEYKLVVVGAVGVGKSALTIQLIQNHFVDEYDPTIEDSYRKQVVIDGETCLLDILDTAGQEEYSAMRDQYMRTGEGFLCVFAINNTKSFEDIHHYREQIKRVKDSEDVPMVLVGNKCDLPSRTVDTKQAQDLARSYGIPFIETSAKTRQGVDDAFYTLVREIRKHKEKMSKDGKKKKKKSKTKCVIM
Outline: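 Luminescence from lytic Nano-Glo HiBiT detection with LgBiT read KRAS G12V levels after 24 h compound exposure. Dilutions were 10-point, 3-fold, from a 0.3 mM DMSO stock. Degradation activity was normalised to cells given 0.1% DMSO alone.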

T1 sequence (P01116 1-188 isoform P01116-2): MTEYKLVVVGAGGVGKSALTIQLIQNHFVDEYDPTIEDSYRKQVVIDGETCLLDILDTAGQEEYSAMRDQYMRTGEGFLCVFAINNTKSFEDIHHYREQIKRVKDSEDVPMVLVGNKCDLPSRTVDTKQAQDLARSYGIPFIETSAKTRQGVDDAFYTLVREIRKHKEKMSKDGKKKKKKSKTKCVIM

Row | DC50 [1] [nM] | DC50 ([2]; class symbols) [nM] | Dmax ([2]; class symbols) [%] | DC50 [3] [nM] | DC50 ([2]; numeric bounds given in place of class symbols) [nM] | Structure (SMILES) | Average Dmax ([2]; class symbols)
1 | < 1 | < 100 | – | < 10 | – | CCc1c(F)ccc2cc(O)cc(-c3ncc4c(N5CCC[C@@](C)(O)C5)nc(OC[C@@]56CCCN5[C@H](COC(=O)N5CC7(CCN(CC8CCN(c9ccc%10c(c9)n(C)c(=O)n%10C9CCC(=O)NC9=O)CC8)CC7)C5)CC6)nc4c3F)c12 (stereo partly drawn) [Compound 452, ((3S,7aS)-7a-(((7-(8-ethyl-7-fluoro-3-hydroxynaphthalen-1-yl)-8-fluoro-4-((R)-3-hydroxy-3-methylpiperidin-1-yl)pyrido[4,3-d]pyrimidin-2-yl)oxy)methyl)hexahydro-1H-pyrrolizin-3-yl)methyl 7-((1-(1-(2,6-dioxopiperidin-3-yl)-3-methyl-2-oxo-2,3-dihydro-1H-benzo[d]imidazol-5-yl)piperidin-4-yl)methyl)-2,7-diazaspiro[3.5]nonane-2-carboxylate] | –
2 | 1 to 10 | < 100 | – | < 10 | – | C#Cc1c(F)ccc2cc(O)cc(-c3ncc4c(N5CCC[C@@](C)(O)C5)nc(OC[C@@]56CCCN5[C@H](COC(=O)N5CC7(CC(CN8CCC(c9ccc%10c(c9)n(C)c(=O)n%10C9CCC(=O)NC9=O)CC8)C7)C5)CC6)nc4c3F)c12 (stereo partly drawn) [Compound 418, ((3S,7aS)-7a-(((7-(8-ethynyl-7-fluoro-3-hydroxynaphthalen-1-yl)-8-fluoro-4-((R)-3-hydroxy-3-methylpiperidin-1-yl)pyrido[4,3-d]pyrimidin-2-yl)oxy)methyl)hexahydro-1H-pyrrolizin-3-yl)methyl 6-((4-(1-(2,6-dioxopiperidin-3-yl)-3-methyl-2-oxo-2,3-dihydro-1H-benzo[d]imidazol-5-yl)piperidin-1-yl)methyl)-2-azaspiro[3.3]heptane-2-carboxylate] | –
3 | < 1 | < 100 | – | < 10 | – | CCc1c(F)ccc2cc(O)cc(-c3ncc4c(N5CCCCC5)nc(OC[C@@]56CCCN5[C@H](COC(=O)N5CCC7(CC5)CC(N5CCC(c8ccc9c(c8)n(C)c(=O)n9C8CCC(=O)NC8=O)CC5)C7)CC6)nc4c3F)c12 (stereo partly drawn) [Compound 367, ((3S,7aS)-7a-(((7-(8-ethyl-7-fluoro-3-hydroxynaphthalen-1-yl)-8-fluoro-4-(piperidin-1-yl)pyrido[4,3-d]pyrimidin-2-yl)oxy)methyl)hexahydro-1H-pyrrolizin-3-yl)methyl 2-(4-(1-(2,6-dioxopiperidin-3-yl)-3-methyl-2-oxo-2,3-dihydro-1H-benzo[d]imidazol-5-yl)piperidin-1-yl)-7-azaspiro[3.5]nonane-7-carboxylate] | –
4 | 1 to 10 | – | – | > 100 | > 100 | CCc1c(F)ccc2cc(O)cc(-c3ncc4c(N5CCC(F)(F)CC5)nc(OC[C@@]56CCCN5[C@H](COC(=O)N5CCC7(CC5)CC(N5CCC(c8ccc9c(c8)n(C)c(=O)n9C8CCC(=O)NC8=O)CC5)C7)CC6)nc4c3F)c12 (stereo partly drawn) [Compound 357, ((3S,7aS)-7a-(((4-(4,4-difluoropiperidin-1-yl)-7-(8-ethyl-7-fluoro-3-hydroxynaphthalen-1-yl)-8-fluoropyrido[4,3-d]pyrimidin-2-yl)oxy)methyl)hexahydro-1H-pyrrolizin-3-yl)methyl 2-(4-(1-(2,6-dioxopiperidin-3-yl)-3-methyl-2-oxo-2,3-dihydro-1H-benzo[d]imidazol-5-yl)piperidin-1-yl)-7-azaspiro[3.5]nonane-7-carboxylate] | –
5 | < 1 | < 100 | – | < 10 | – | C#Cc1c(F)ccc2cc(O)cc(-c3ncc4c(N5CCC[C@@](C)(O)C5)nc(OC[C@@]56CCCN5[C@H](COC(=O)N5CCC7(CC5)CC(N5CCC(c8ccc9c(c8)n(C)c(=O)n9C8CCC(=O)NC8=O)CC5)C7)CC6)nc4c3F)c12 (stereo partly drawn) [Compound 158, ((3S,7aS)-7a-(((7-(8-Ethynyl-7-fluoro-3-hydroxynaphthalen-1-yl)-8-fluoro-4-((R)-3-hydroxy-3-methylpiperidin-1-yl)pyrido[4,3-d]pyrimidin-2-yl)oxy)methyl)hexahydro-1H-pyrrolizin-3-yl)methyl-2-(4-(1-(2,6-dioxopiperidin-3-yl)-3-methyl-2-oxo-2,3-dihydro-1H-benzo[d]imidazol-5-yl)piperidin-1-yl)-7-azaspiro[3.5]nonane-7-carboxylate] | –
6 | 1 to 10 | < 100 | – | 10 to 100 | – | CCc1c(F)ccc2cc(O)cc(-c3ncc4c(N5CCC[C@@](C)(O)C5)nc(OC[C@@]56CCCN5[C@H](CN5CCC(CN7CCC(c8ccc9c(c8)n(C)c(=O)n9C8CCC(=O)NC8=O)CC7)CC5)CC6)nc4c3F)c12 (stereo partly drawn) [Compound 402, 3-(5-(1-((1-(((35,7aS)-7a-(((7-(8-Ethyl-7-fluoro-3-hydroxynaphthalen-1-yl)-8-fluoro-4-((R)-3-hydroxy-3-methylpiperidin-1-yl)pyrido[4,3-d]pyrimidin-2-yl)oxy)methyl)hexahydro-1H-pyrrolizin-3-yl)methyl)piperidin-4-yl)methyl)piperidin-4-yl)-3-methyl-2-oxo-2,3-dihydro-1H-benzo[d]imidazol-1-yl) piperidine-2,6-dione] | –
7 | < 1 | < 100 | – | < 10 | – | C#Cc1c(F)ccc2cc(O)cc(-c3ncc4c(N5CCC[C@@](C)(O)C5)nc(OC[C@]56CCCN5[C@H](COC(=O)N5CCC(CN7CCC(c8ccc9c(c8)n(C)c(=O)n9C8CCC(=O)NC8=O)CC7)CC5)CC6)nc4c3F)c12 (stereo partly drawn) [Compound 134] | –

The remaining lines, values behind:

Row | Structure (SMILES) | DC50 [1] [nM] | DC50 ([2]; class symbols) [nM] | Dmax ([2]; class symbols) [%] | DC50 [3] [nM] | DC50 ([2]; numeric bounds given in place of class symbols) [nM] | Average Dmax ([2]; class symbols)
8 | C#Cc1c(F)ccc2cc(O)cc(-c3ncc4c(N5CCCC(F)(F)C5)nc(OC[C@@]56CCCN5[C@H](COC(=O)N5CCC(CN7CCC(c8ccc9c(c8)n(C)c(=O)n9C8CCC(=O)NC8=O)CC7)CC5)CC6)nc4c3F)c12 (stereo partly drawn) [Compound 124, ((35,7aS)-7a-(((4-(3,3-Difluoropiperidin-1-yl)-7-(8-ethynyl-7-fluoro-3-hydroxynaphthalen-1-yl)-8-fluoropyrido[4,3-d]pyrimidin-2-yl)oxy)methyl)hexahydro-1H-pyrrolizin-3-yl)methyl4-((4-(1-(2,6-dioxopiperidin-3-yl)-3-methyl-2-oxo-2,3-dihydro-1H-benzo[d]imidazol-5-yl)piperidin-1-yl)methyl) piperidine-1-carboxylate] | < 1 | < 100 | > 50 | < 10 | – | –
9 | C#Cc1c(F)ccc2cc(O)cc(-c3ncc4c(N5CCC[C@@](C)(O)C5)nc(OCC5(CN6CCC7(CC6)CCN(c6ccc8c(c6)n(C)c(=O)n8C6CCC(=O)NC6=O)CC7)CC5)nc4c3F)c12 (stereo partly drawn) [Compound 52] | ≥ 10 | < 100 | – | < 10 | – | –
10 | CCc1c(F)ccc2cc(O)cc(-c3ncc4c(N5CCC[C@@](C)(O)C5)nc(OC[C@@]56CCCN5[C@H](COC(=O)N5CCN(CC7CCN(c8ccc9c(c8)n(C)c(=O)n9C8CCC(=O)NC8=O)CC7)CC5)CC6)nc4c3F)c12 (stereo partly drawn) [Compound 97, [(3S,8S)-8-[[7-(8-ethyl-7-fluoro-3-hydroxy-1-naphthyl)-8-fluoro-4-[(3R)-3-hydro-xy-3-methyl-1-piperidyl]pyrido[4,3-d]pyrimidin-2-yl]oxymethyl]-1,2,3,5,6,7-hexahydropyrrolizin-3-yl]methyl 4-[[1-[1-(2,6-dioxo-3-piperidyl)-3-methyl-2-oxo-benzimidazol-5-yl]-4-piperidyl]methyl]piperazine-1-carboxylate] | < 1 | < 100 | > 50 | < 10 | – | –
11 | CCc1c(F)ccc2cc(O)cc(-c3ncc4c(N5CCC[C@@](C)(O)C5)nc(OCC5(CN6CCN(CC7CCN(c8ccc9c(c8)n(C)c(=O)n9C8CCC(=O)NC8=O)CC7)CC6)CC5)nc4c3F)c12 (stereo partly drawn) [Compound 34] | < 1 | < 100 | – | < 10 | – | –
12 | CCc1c(F)ccc2cc(O)cc(-c3ncc4c(N5CCC[C@@](C)(O)C5)nc(OC[C@@]56CCCN5[C@H](COC(=O)N5CCC(CN7CCC(c8ccc9c(c8)n(C)c(=O)n9C8CCC(=O)NC8=O)CC7)CC5)CC6)nc4c3F)c12 (stereo partly drawn) [Compound 1, [(3S,8S)-8-[[7-(8-Ethyl-7-fluoro-3-hydroxy-1-naphthyl)-8-fluoro-4-[(3R)-3-hydroxy-3-methyl-1-piperidyl]pyrido[4,3-d]pyrimidin-2-yl]oxymethyl]-1,2,3,5,6,7-hexahydropyrrolizin-3-yl]methyl 4-[[4-[1-(2,6-dioxo-3-piperidyl)-3-methyl-2-oxo-benzimidazol-5-yl]-1-piperidyl]methyl]piperidine-1-carboxylate] | < 1 | < 100 | – | < 10 | – | A (Dmax greater than 50%)
